Data on 25 compounds can be found in patent US8242117B2, “5-membered heterocycle-based p38 kinase inhibitors” (Novartis AG, priority 2003, dated 2012).

T1 sequence (Q16539 whole entry): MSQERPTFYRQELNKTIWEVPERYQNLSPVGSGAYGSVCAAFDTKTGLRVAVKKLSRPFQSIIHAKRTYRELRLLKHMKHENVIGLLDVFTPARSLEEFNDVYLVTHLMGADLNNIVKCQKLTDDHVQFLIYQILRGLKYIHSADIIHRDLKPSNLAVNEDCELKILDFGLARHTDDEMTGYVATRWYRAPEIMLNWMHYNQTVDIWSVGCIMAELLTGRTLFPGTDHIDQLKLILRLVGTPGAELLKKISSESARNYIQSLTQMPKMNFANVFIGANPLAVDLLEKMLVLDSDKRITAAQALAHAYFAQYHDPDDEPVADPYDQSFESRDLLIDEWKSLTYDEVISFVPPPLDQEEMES

This experiment addresses T1, p38α kinase (Homo sapiens, UniProt Q16539).
T1 construct: purchased Upstate
The experiment is described as follows: p38α assay (ADP release coupled to NADH oxidation). The format is biochemical. The following applies: 60 min preincubation, 0.15 mM ATP, 20 nM p38α kinase. The procedure:
cDNAs of human p38α and β were cloned by PCR. The α and β cDNAs were subcloned into DEST2 plasmid (Gateway, InVitrogen). His6-p38 fusion protein was expressed in E. coli and purified from bacterial lysates by affinity chromatography using Ni^+2-NTA-agarose. His6-p38 protein was activated by incubating with constitutively active MKK6. Active p38 was separated from MKK6 by affinity chromatography. Constitutively active MKK6 was generated in a manner similar to Raingeaud et al. [Mol. Cell. Biol., 1247-1255 (1996)].
The p38α assay employed is based on measurement of ADP released in the reaction of interest through NADH oxidation obtained by coupling with pyruvate kinase and lactate dehydrogenase reactions. The assays were performed in 384-well UV-plates. The final volume was 25 μL prepared from the addition of 2.5 μL compound dissolved in 10% DMSO, 17.5 μL of assay buffer and 5 μL of ATP. Assay buffer contains the following reagents to give final concentration in the assay: 25 mM HEPES, 20 mM 2-glycerophosphate, pH 7.6, 10 mM MgCl2, 0.1 mM sodium orthovanadate, 0.5 mM phosphoenolpyruvate, 0.12 mM NADH, 3.1 mg/ml LDH, 6.67 mg/ml pyruvate kinase, 0.25 mM peptide substrate, 2 mM DTT, 0.005% Tween 80 and 20 nM p38α kinase from Upstate. Test compounds are preincubated zith p38α kinase for 60 min and the reaction started by addition of ATP to 0.15 mM final concentration. Reaction rates were measured at 340 nm using SpectraMax plate-reading spectrophotometer for 10 min at 37° C. Inhibition data were analyzed by non-linear least-squares regression using SigmaPlot.
The term IC50 denotes the concentration needed to halve the response being measured. For the compound `CONC(=O)c1ccc(C)c(-n2ncc(C(=O)c3cccc(I)c3)c2N)c1` [Example 1, 3-[5-Amino-4-(3-iodo-benzoyl)-pyrazol-1-yl]-N-methoxy-4-methyl-benzamide], the concentration for half-maximal inhibition (IC50) is less than 1000 nM.
As for `CONC(=O)c1ccc(C)c(-n2ncc(C(=O)c3ccccc3)c2N)c1` [Example 2, 3-(5-Amino-4-benzoyl-pyrazol-1-yl)-N-methoxy-4-methyl-benzamide], the figure is less than 1000 nM; as for `Cc1ccc(C(=O)O)cc1-n1ncc(C(=O)c2ccccc2)c1N` [Example 3, 3-(5-amino-4-benzoyl-pyrazol-1-yl)-4-methyl-benzoic acid], 1000 to 10000 nM.
To `Cc1ccc(C(=O)NC2CC2)cc1-n1ncc(C(=O)c2ccccc2)c1N` [Example 4, 3-(5-amino-4-benzoyl-pyrazol-1-yl)-N-cyclopropyl-4-methyl-benzamide] belongs less than 1000 nM.
As for `Cc1ccc(C(=O)O)cc1-n1ncc(C(=O)c2cccc(I)c2)c1N` [Example 5, 3-[5-amino-4-(3-iodo-benzoyl)-pyrazol-1-yl]-4-methyl-benzoic acid], the figure is 1000 to 10000 nM; as for `Cc1ccc(C(=O)NC2CC2)cc1-n1ncc(C(=O)c2cccc(I)c2)c1N` [Example 6, 3-[5-amino-4-(3-iodo-benzoyl)-pyrazol-1-yl]-N-cyclopropyl-4-methyl-benzamide], less than 1000 nM; as for `Cc1ccc(-c2nnc[nH]2)cc1-n1ncc(C(=O)c2ccccc2)c1N` [Example 7, {5-amino-1-[2-methyl-5-(4H-[1,2,4]triazol-3-yl)-phenyl]-1H-pyrazol-4-yl}-phenyl-methanone], less than 1000 nM.
The compound `Cc1ccc(C(=O)NC2CC2)cc1-n1ncc(C(=O)c2cccc(C3OCCO3)c2)c1N` [Example 8, 3-[5-amino-4-(3-[1,3]dioxolan-2-yl-benzoyl)-pyrazol-1-yl]-N-cyclopropyl-4-methyl-benzamide] returned a half-inhibitory concentration (IC50) of less than 1000 nM.
To `Cc1ccc(C(=O)NC2CC2)cc1-n1ncc(C(=O)c2cccc(C=O)c2)c1N` [Example 9, 3-[5-amino-4-(3-formyl-benzoyl)-pyrazol-1-yl]-N-cyclopropyl-4-methyl-benzamide] belongs less than 1000 nM.
To `Cc1ccc(C(=O)NC2CC2)cc1-n1ncc(C(=O)c2cccc(CO)c2)c1N` [Example 10, 3-[5-amino-4-(3-hydroxymethyl-benzoyl)-pyrazol-1-yl]-N-cyclopropyl-4-methyl-benzamide] belongs less than 1000 nM; to `Cc1ccc(C(=O)NC2CC2)cc1-n1cnc(C(=O)C2CCCCC2)c1N` [Example 18, 3-(5-Amino-4-cyclohexanecarbonyl-imidazol-1-yl)-N-cyclopropyl-4-methyl-benzamide], less than 1000 nM; to `Cc1ccc(C(=O)NC2CC2)cc1-n1cnc(C(=O)C2CCOCC2)c1N` [Example 29, 3-[5-Amino-4-(tetrahydro-pyran-4-carbonyl)-imidazol-1-yl]-N-cyclopropyl-4-methyl-benzamide], less than 1000 nM.
To `COc1nn(-c2cc(C(=O)NC3CC3)ccc2C)c(N)c1C(=O)c1ccccc1` [Example 30, 3-(5-amino-4-benzoyl-3-methoxy-pyrazol-1-yl)-N-cyclopropyl-4-methyl-benzamide] belongs less than 1000 nM.
On to `Cc1ccc(C(=O)NC2CC2)cc1-n1nc(OCCOCc2ccccc2)c(C(=O)c2ccccc2)c1N` [Example 33, 3-[5-amino-4-benzoyl-3-(2-benzyloxy-ethoxy)-pyrazol-1-yl]-N-cyclopropyl-4-methyl-benzamide], for which the IC50 is less than 1000 nM.
Turning to `Cc1ccc(C(=O)NC2CC2)cc1-n1nc(OC2CCN(C(=O)OC(C)(C)C)CC2)c(C(=O)c2ccccc2)c1N` [Example 34, 4-[5-amino-4-benzoyl-1-(5-cyclopropylcarbamoyl-2-methyl-phenyl)-1H-pyrazol-3-yloxy]-piperidine-1-carboxylic acid tert-butyl ester], the concentration for half-maximal inhibition (IC50) is less than 1000 nM.
As to `CCOC(=O)c1cnn(-c2cc(C(=O)NC3CC3)ccc2C)c1N` [Example 48, 5-Amino-1-(5-cyclopropylcarbamoyl-2-methyl-phenyl)-1H-pyrazole-4-carboxylic acid ethyl ester], the IC50 was less than 1000 nM.
As for `CCOC(=O)c1c(C)nn(-c2cc(C(=O)NC3CC3)ccc2C)c1N` [Example 49, 5-Amino-1-(5-cyclopropylcarbamoyl-2-methyl-phenyl)-3-methyl-1H-pyrazole-4-carboxylic acid ethyl ester], the figure is less than 1000 nM.
For the compound `CCOC(=O)c1c(OCC(=O)NCc2cccc(Cl)c2)nn(-c2cc(C(=O)NC3CC3)ccc2C)c1N` [Example 50, 5-Amino-3-[(3-chloro-benzylcarbamoyl)-methoxy]-1-(5-cyclopropylcarbamoyl-2-methyl-phenyl)-1H-pyrazole-4-carboxylic acid ethyl ester], the concentration for half-maximal inhibition (IC50) was less than 1000 nM.
The compound `Cc1ccc(C(=O)NC2CC2)cc1-n1ncc(C(=O)c2cccc(C#N)c2)c1N` [Example 52, 3-[5-Amino-4-(3-cyanobenzoyl)-pyrazol-1-yl]-N-cyclopropyl-4-methylbenzamide] yielded an IC50 of less than 1000 nM.
To `Cc1ccc(C(=O)NC2CC2)cc1-n1ncc(C(=O)c2cccc(-c3nnco3)c2)c1N` [Example 53, 3-[5-Amino-4-(3-[1,3,4]oxadiazol-2-yl-benzoyl)-pyrazol-1-yl]-N-cyclopropyl-4-methylbenzamide] belongs less than 1000 nM; to `Cc1ccc(C(=O)NC2CC2)cc1-n1cnc(C(=O)c2ccccn2)c1N` [Example 76, 3-[5-Amino-4-(pyridine-2-carbonyl)-imidazol-1-yl]-N-cyclopropyl-4-methyl-benzamide], less than 1000 nM.
Compound `Cc1ccc(C(=O)NC2CC2)cc1-n1cnc(C(=O)c2ccc3c(c2)OCO3)c1N` [Example 87, 3-[5-Amino-4-(benzo[1,3]dioxole-5-carbonyl)-imidazol-1-yl]-N-cyclopropyl-4-methyl-benzamide] had an IC50 of less than 1000 nM.
To `Cc1ccc(C(=O)NC2CC2)cc1-n1ncc(C(=O)NC2CCCCC2C)c1N` (stereo not shown) [Example 128, 5-Amino-1-(5-cyclopropylcarbamoyl-2-methyl-phenyl)-1H-pyrazole-4-carboxylic acid (2-methyl-cyclohexyl)-amide] belongs less than 1000 nM; to `Cc1ccc(C(=O)NC2CC2)cc1-n1ncc(C(=O)NC2CCc3ccccc32)c1N` (stereo not shown) [Example 135, 5-Amino-1-(5-cyclopropylcarbamoyl-2-methyl-phenyl)-1H-pyrazole-4-carboxylic acid indan-1-ylamide], less than 1000 nM.
On to `Cc1ccc(C(=O)NC2CC2)cc1-n1ncc(C(=O)c2cccc(OCC(O)CO)c2)c1N` (stereo not shown) [Example 171, 3-{5-Amino-4-[3-(2,3-dihydroxy-propoxy)-benzoyl]-pyrazol-1-yl}-N-cyclopropyl-4-methylbenzamide], for which the half-maximal inhibitory concentration (IC50) is less than 1000 nM.
